The results in this text go back to US5763404A, “Methods for using LHRH antagonists with low histamine release” (priority 1995, dated 1998).

Starred links: 1 amine or outer side, 2 acyl side, 3 side chain; linkers in the order of their positions; H or OH if unused. Non-standard residues stand in square brackets, D forms with d. Residues, ends and D or L forms follow the SMILES beside them. No end group written: not given here. *: point of attachment. X2 = O=C(N[C@H]1CC[C@@H](C[C@H](N[*:1])C(=O)[*:2])CC1)c1cnccn1; dPhe(4-Cl) = N[C@H](Cc1ccc(Cl)cc1)C(=O)O; d2Nal = N[C@H](Cc1ccc2ccccc2c1)C(=O)O; Lys(iPr) = CC(C)NCCCC[C@H](N)C(=O)O; Orn(iPr) = CC(C)NCCC[C@H](N)C(=O)O; Pyrazinecarbonyl = O=C(c1cnccn1)*; 3Pal = N[C@@H](Cc1cccnc1)C(=O)O; d3Pal = N[C@H](Cc1cccnc1)C(=O)O; Nicotinoyl = O=C(c1cccnc1)*; Picolinoyl = O=C(c1ccccn1)*; Bz = O=C(c1ccccc1)*

One data set relates to rat mast cells. The data set is described as follows: in vitro histamine release test. Type of data set: cell-based. Conditions: for In Vitro Histamine Release ED50: rat mast cells, ± SEM. As to the method: The antiovulatory activity, AOA, in rats was determined as described by Humphries et al. (12). Antiovulation assays were performed by counting, on estrus, the number of ova shed by 4-day cycling rats after a single sc injection of the LH-RH analogue in corn oil was administered between 12 and 12:30 p.m. on […]. The control rats received 0.3 mL of the vehicle. The wheal test was performed by intradermally injecting 10 ug of peptide in 100 ul of saline into anaesthesized rats, measuring the ideally circular wheal response and calculating the area. The in vitro histamine release test was done as described by Karten et al. (4). A suspension of rat mast cells was added to increasing concentrations of peptide and the mixture was incubated for a few minutes followed by centrifugation to collect the histamine in the supernatant. A PIPES (piperazine-N,N'-bis[2-ethanesulfonic acid]) medium buffered at pH 7.4 containing NaCl 119 mM, KCl 5 mM, PIPES 25 mM, NaOH 40 mM, glucose 5.6 mM, CaCl2 1 mM, and 0.1% bovine serum albumin was used. This was designated as PIPES AC. Peptides were dissolved in double distilled H2 O at a concentration of 2 mg/ml and stored at -20° C. They were thawed just prior to testing, diluted in PIPES AC and prewarmed for five minutes at 37° C. Peptides studied were stable to heating at 56° C. for two hours, and to freezing and thawing.
Peritoneal cells were collected from male Sprague-Dawley rats weighing 200 to 250 gm and purchased from Harlan (Madison, Wis.). After euthanasia by CO2, the peritoneal cavity was washed with 50 ml PIPES AC medium containing 20 units of heparin. Following centrifugation at 200×g for eight minutes at 4° C., cells were washed again and finally resuspended to a concentration of 8 to 24×10^5 total leukocytes/ml in PIPES AC. This suspension contained approximately 5-10% mast cells. Washed cells were used immediately after collection and were prewarmed for five minutes at 37° C. prior to pipetting 0.25 ml aliquots into 12×75 mm polystyrene tubes containing 0.25 ml of diluted peptide. Mixtures were incubated for 15 minutes at 37° C. and the reaction stopped by centrifugation at 400×g for 15 minutes at 4° C. The cell supernatants were assayed for histamine content by the automated fluorometric assay procedure. See, Siraganian, R. P., "An automated continuous flow system for the extraction and fluorometric analysis of histamine." Anal. Biochem. 57:383 (1974); and Siraganian, R. P. and Hook, W. A., "Histamine release and assay methods for the study of human allergy," In Manual of Clinical Immunology, 3rd ed., N. R. Rose, H. Friedman, and J. L. Fahey (Eds.), Amer. Soc. for Microbiology, Washington (1986) p. 808.

For data set [1], the system named is dispersed pituitary cell culture. The experiment in a line: dispersed pituitary cell culture assay. Type of data set: cell-based.
Another data set concerns anaesthesized rats. The data set is described as follows: wheal test, intradermal injection. Type of data set: in vivo, rat. Also on record: Wheal (wheal response): unit not given here. Conditions: for Wheal: Table I; for Wheal / Wheal Area: 10 ug peptide intradermally; for Wheal (wheal response): Table XIV and text, unit not given. The gist of the method: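 Anaesthetized rats given intradermal injection of 10 ug peptide in 100 ul saline; area of the wheal calculated from its diameter.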

Consider “[N-Ac-D-2-Nal^1,D-4-F-Phe^2,D-Trp^3,D-Arg^6 ]-LHRH”, for which the “In Vitro Histamine Release ED50” value in the data set with rat mast cells was 0.17 µg/mL; in the data set on rat mast cells (listed as [N-Ac-D-2-Nal^1,D-pFPhe^2,D-Trp^3,D-Arg^6 ]-LHRH), “about 0.17 μg/ml”; in the data set on rat mast cells (listed as standard compound), 0.1 to 0.2 µg/mL. Further, the “ED 50 (histamine release), starred test series” value in the data set on rat mast cells (test series in which the standard compound had ED 50 0.46 instead of the usual 0.1-0.2) was 0.46 µg/mL.

Take “luteinizing hormone releasing hormone (QHWSYGLRPG; ends and bridges not checked; UniProt P01148 24-33, looked up) [LHRH, natural hormone used as agonist in the pituitary cell culture assay]”: the FSH in data set [1] (LHRH 0.1 nM alone) is 221 ± 18 ng/mL; in data set [1] (LHRH 0.3 nM alone) it was 562 ± 48 ng/mL; in data set [1] (LHRH 1.0 nM alone), 802 ng/mL; in data set [1] (LHRH 3.0 nM alone), 646 ± 123 ng/mL; in data set [1] (LHRH 10.0 nM alone) it was 602 ± 26 ng/mL; in data set [1] (LHRH 30.0 nM alone), 557 ± 15 ng/mL. The RLH in data set [1] (LHRH 0.1 nM alone) amounted to 40 ± 7 ng/mL; in data set [1] (LHRH 0.3 nM alone), 80 ± 1 ng/mL; in data set [1] (LHRH 1.0 nM alone) it was 118 ng/mL; in data set [1] (LHRH 3.0 nM alone), 150 ± 1 ng/mL; in data set [1] (LHRH 10.0 nM alone), 141 ± 4 ng/mL; in data set [1] (LHRH 30.0 nM alone) it was 152 ± 7 ng/mL.

As for `CC(=O)N[C@H](Cc1ccc2ccccc2c1)C(=O)N[C@H](Cc1ccc(Cl)cc1)C(=O)N[C@H](Cc1cccnc1)C(=O)N[C@@H](CO)C(=O)N[C@@H](CCCCNC(=O)c1ccccn1)C(=O)N[C@H](CCCCNC(=O)c1ccccn1)C(=O)N[C@@H](CC(C)C)C(=O)N[C@@H](CCCCNC(C)C)C(=O)N1CCC[C@H]1C(=O)N[C@H](C)C(N)=O` (Ac-[d2Nal][dPhe(4-Cl)][d3Pal]SK(Picolinoyl)[dK](Picolinoyl)L[Lys(iPr)]P[dA]-NH2), the “histamine release (in words)” value in the data set on rat mast cells is “released no more histamine than do "super agonists" of LHRH”.

`CC(=O)N[C@H](Cc1ccc2ccccc2c1)C(=O)N[C@H](Cc1ccc(Cl)cc1)C(=O)N[C@H](Cc1cccnc1)C(=O)N[C@@H](CO)C(=O)N[C@@H](CCCCNC(=O)c1cccnc1)C(=O)N[C@H](CCCCNC(=O)c1cccnc1)C(=O)N[C@@H](CC(C)C)C(=O)N[C@@H](CCCCNC(C)C)C(=O)N1CCC[C@H]1C(=O)N[C@H](C)C(N)=O` [Antide, [N-Ac-D-2-Nal^1, D-pClPhe^2, D-3-Pal^3, NicLys^5, D-NicLys^6, ILys^8, D-Ala^10]-LHRH] (Ac-[d2Nal][dPhe(4-Cl)][d3Pal]SK(Nicotinoyl)[dK](Nicotinoyl)L[Lys(iPr)]P[dA]-NH2): the “histamine release (in words)” value in the data set with rat mast cells is listed as “released remarkably little histamine”. In addition, in the data set on anaesthesized rats, the Wheal came out at 132.7 mm^2 /10 and the “Wheal (wheal response)” value came to 132.7.

The compound `CC(=O)N[C@H](Cc1ccc2ccccc2c1)C(=O)N[C@H](Cc1ccc(Cl)cc1)C(=O)N[C@H](Cc1cccnc1)C(=O)N[C@@H](CO)C(=O)N[C@@H](Cc1cccnc1)C(=O)N[C@H](CCCCNC(=O)c1cccnc1)C(=O)N[C@@H](CC(C)C)C(=O)N[C@@H](CCCCNC(C)C)C(=O)N1CCC[C@H]1C(=O)N[C@H](C)C(N)=O` [compound 25383] (Ac-[d2Nal][dPhe(4-Cl)][d3Pal]S[3Pal][dK](Nicotinoyl)L[Lys(iPr)]P[dA]-NH2) returned a Wheal in the data set on anaesthesized rats of 132.8 mm^2 /10.

Turning to `CC(=O)N[C@H](Cc1ccc2ccccc2c1)C(=O)N[C@H](Cc1ccc(Cl)cc1)C(=O)N[C@H](Cc1cccnc1)C(=O)N[C@@H](CO)C(=O)N[C@@H](CCCCNC(C)C)C(=O)N[C@H](CCCCNC(=O)c1cccnc1)C(=O)N[C@@H](CC(C)C)C(=O)N[C@@H](CCCCNC(=O)c1cccnc1)C(=O)N1CCC[C@H]1C(=O)N[C@H](C)C(N)=O` [compound 24746] (Ac-[d2Nal][dPhe(4-Cl)][d3Pal]S[Lys(iPr)][dK](Nicotinoyl)LK(Nicotinoyl)P[dA]-NH2), the Wheal in the data set on anaesthesized rats is listed as 132.8 ± 5.9 mm^2 /10.

For `CC(=O)N[C@H](Cc1ccc2ccccc2c1)C(=O)N[C@H](Cc1ccc(Cl)cc1)C(=O)N[C@H](Cc1cccnc1)C(=O)N[C@@H](CO)C(=O)N[C@@H](C[C@H]1CC[C@@H](NC(=O)c2cnccn2)CC1)C(=O)N[C@H](CCCCNC(=O)c1ccccn1)C(=O)N[C@@H](CC(C)C)C(=O)N[C@@H](CCCCNC(C)C)C(=O)N1CCC[C@H]1C(=O)N[C@H](C)C(N)=O` [compound 26180] (Ac-[d2Nal][dPhe(4-Cl)][d3Pal]S[X2][dK](Picolinoyl)L[Lys(iPr)]P[dA]-NH2), in the data set with anaesthesized rats, the “Wheal Area” value stood at 99.5 ± 4.5 mm^2 /10 μg and the “Wheal (wheal response)” value stood at 99.5 ± 4.5.

Regarding `CC(=O)N[C@H](Cc1ccc2ccccc2c1)C(=O)N[C@H](Cc1ccc(Cl)cc1)C(=O)N[C@H](Cc1cccnc1)C(=O)N[C@@H](CO)C(=O)N[C@@H](CCCCNC(=O)c1cccnc1)C(=O)N[C@H](CCCCNC(=O)c1cnccn1)C(=O)N[C@@H](CC(C)C)C(=O)N[C@@H](CCCCNC(C)C)C(=O)N1CCC[C@H]1C(=O)N[C@H](C)C(N)=O` [compound 25649] (Ac-[d2Nal][dPhe(4-Cl)][d3Pal]SK(Nicotinoyl)[dK](Pyrazinecarbonyl)L[Lys(iPr)]P[dA]-NH2), the Wheal with anaesthesized rats turned out to be 122.2 ± 5.1 mm^2 /10.

The compound `CC(=O)N[C@H](Cc1ccc2ccccc2c1)C(=O)N[C@H](Cc1ccc(Cl)cc1)C(=O)N[C@H](Cc1cccnc1)C(=O)N[C@@H](CO)C(=O)N[C@@H](CCCCNC(=O)c1cccnc1)C(=O)N[C@H](CCCCNC(=O)c1cccnc1)C(=O)N[C@@H](CC(C)C)C(=O)N[C@@H](CCCNC(=N)N)C(=O)N1CCC[C@H]1C(=O)N[C@H](C)C(N)=O` [compound 24594] (Ac-[d2Nal][dPhe(4-Cl)][d3Pal]SK(Nicotinoyl)[dK](Nicotinoyl)LRP[dA]-NH2) had a Wheal with anaesthesized rats of 126.2 ± 8.8 mm^2 /10.

For `CC(=O)N[C@H](Cc1ccc2ccccc2c1)C(=O)N[C@H](Cc1ccc(Cl)cc1)C(=O)N[C@H](Cc1cccnc1)C(=O)N[C@@H](CO)C(=O)N[C@@H](CCCNC(=N)N)C(=O)N[C@H](CCCCNC(=O)c1cccnc1)C(=O)N[C@@H](CC(C)C)C(=O)N[C@@H](CCCNC(=N)N)C(=O)N1CCC[C@H]1C(=O)N[C@H](C)C(N)=O` [compound 24199] (Ac-[d2Nal][dPhe(4-Cl)][d3Pal]SR[dK](Nicotinoyl)LRP[dA]-NH2), the Wheal in the data set with anaesthesized rats is listed as 146.8 mm^2 /10.

On to `CC(=O)N[C@H](Cc1ccc2ccccc2c1)C(=O)N[C@H](Cc1ccc(Cl)cc1)C(=O)N[C@H](Cc1cccnc1)C(=O)N[C@@H](CO)C(=O)N[C@@H](CCCNC(=N)N)C(=O)N[C@H](CCCCNC(=O)c1ccccc1)C(=O)N[C@@H](CC(C)C)C(=O)N[C@@H](CCCCNC(C)C)C(=O)N1CCC[C@H]1C(=O)N[C@H](C)C(N)=O` [compound 25385] (Ac-[d2Nal][dPhe(4-Cl)][d3Pal]SR[dK](Bz)L[Lys(iPr)]P[dA]-NH2), for which the Wheal with anaesthesized rats amounted to 169.0 mm^2 /10.

With `CC(=O)N[C@H](Cc1ccc2ccccc2c1)C(=O)N[C@H](Cc1ccc(Cl)cc1)C(=O)N[C@H](Cc1cccnc1)C(=O)N[C@@H](CO)C(=O)N[C@@H](CCCCNC(=O)c1ccccn1)C(=O)N[C@H](CCCCNC(=O)c1ccccn1)C(=O)N[C@@H](CC(C)C)C(=O)N[C@@H](CCCNC(C)C)C(=O)N1CCC[C@H]1C(=O)N[C@H](C)C(N)=O` [compound 25933] (Ac-[d2Nal][dPhe(4-Cl)][d3Pal]SK(Picolinoyl)[dK](Picolinoyl)L[Orn(iPr)]P[dA]-NH2), in the data set on anaesthesized rats, the “Wheal Area” value is recorded as 113.0 ± 0 mm^2 /10 μg and the “Wheal (wheal response)” value was 113.0 ± 0.
